From US20260327221A1, “INHIBITORS OF CYCLIC GMP-AMP SYNTHASE AND USES THEREOF” (Ventus Therapeutics U.S., Inc., priority 2023, published 2026)

Biological target: hcGAS (Homo sapiens, UniProt Q8N884)
Experiment: hcGAS LCMS assay (direct measurement of cGAMP production by LC/MS)
Format: biochemical
Settings: 4 h incubation with enzyme and substrates; cGAMP production by LC/MS; class symbols; read-out: hcGAS LCMS IC50
Method: cGAS catalyzes the cyclization of ATP and GTP to produce cGAMP, which is the activating ligand of STING. Human cGAS (hcGAS) inhibition can thus be quantified by measuring how much cGAMP is formed either indirectly, by monitoring ATP-depletion as in the hcGAS Kinase-Glo assay (as described below), or directly, such as using the hcGAS LCMS assay (as described below).
2. hGAS LCMS Assay Conditions
Compounds were tested for their hcGAS inhibition activity using direct measurement of cGAMP production by LC/MS. Briefly, compounds were incubated with enzyme and substrates for 4 hours (see Table C), before the reaction was stopped with 3 volumes of 70/30 Acetonitrile/H2O mix containing 0.15 uM cGAMP-^13C10^15N5 as internal standard and mixed for 5 mmn. After centrifugation (3700 rpm, […], […]), 100 uL of each reaction was collected and mixed to equal volume of acetonitrile (MeCN). Samples were then analyzed on Qexactive (Column: XBridge BEH Amide Column, 130 Å, 3.5 μm, 3 mm×50 mm. Mobile phase A: 10 mM Ammonium acetate in 95/5 H2O/MeCN (0.5% DMSO), Mobile phase B: MeCN (0.5% DMSO).
The results of the assay, expressed as IC50 values, are reported in Table D with the following designations: A represents an IC50 value <0.005 μM (with A1 representing an IC50 value <0.0005 μM, A2 representing an IC50 value ≥0.0005 μM and <0.001 μM, and A3 representing an IC50 value ≥0.001 μM and <0.005 μM); B represents an IC50 value ≥0.005 μM and <0.02 μM; C represents an IC50 value ≥0.02 μM and <0.06 μM; and D represents an IC50 value ≥0.06 μM.

hcGAS, sequence (Q8N884 whole entry): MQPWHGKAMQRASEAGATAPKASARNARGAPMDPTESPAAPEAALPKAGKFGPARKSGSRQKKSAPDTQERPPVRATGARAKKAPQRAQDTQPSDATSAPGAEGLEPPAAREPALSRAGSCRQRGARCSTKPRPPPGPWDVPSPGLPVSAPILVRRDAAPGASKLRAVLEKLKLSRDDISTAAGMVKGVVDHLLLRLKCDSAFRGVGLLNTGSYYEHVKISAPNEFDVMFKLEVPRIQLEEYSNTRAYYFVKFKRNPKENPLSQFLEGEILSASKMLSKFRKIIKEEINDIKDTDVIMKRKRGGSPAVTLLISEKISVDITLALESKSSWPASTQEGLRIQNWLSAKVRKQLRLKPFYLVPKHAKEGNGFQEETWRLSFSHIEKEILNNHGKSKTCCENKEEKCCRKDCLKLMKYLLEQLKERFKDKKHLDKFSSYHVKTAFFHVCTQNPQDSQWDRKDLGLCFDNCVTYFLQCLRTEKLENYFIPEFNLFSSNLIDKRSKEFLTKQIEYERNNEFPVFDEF

Row | Compound | IC50 [nM]
1 | COc1cccnc1-c1cc(C(=O)Nc2nnc(-n3nccc3N)s2)oc(=O)c1O[C@@H]1CCC[C@H](OC)C1 (single isomer, unassigned) [113D*] | 5 to 20
2 | COc1cccc(OC)c1-c1cc(C(=O)Nc2nnc(-n3nccc3N)s2)oc(=O)c1O[C@H](CO)C1CC1 [106A*, (S)-N-(5-(5-amino-1H-pyrazol-1yl)-1,3,4-thiadiazol-2-yl)-3-(1-cyclopropyl-2-hydroxyethoxy)-4-(2,6-dimethoxyphenyl)-2-oxo-2H-pyran-6-carboxamide] | 1 to 5
3 | COCCOc1c(-c2c(C)cccc2C#N)cc(C(=O)Nc2nnc(-n3nccc3N)s2)oc1=O (single isomer, unassigned) [Compound 24B*, (Sa)-N-(5-(5-amino-1H-pyrazol-1-yl)-1,3,4-thiadiazol-2-yl)-4-(2-cyano-6-methylphenyl)-3-(2-methoxyethoxy)-2-oxo-2H-pyran-6-carboxamide] | < 0.5
4 | COC[C@@H](CO)COc1c(-c2c(OC)cccc2OC)cc(C(=O)Nc2nnc(-n3nccc3N)s2)oc1=O [92A*, (R)-N-(5-(5-amino-1H-pyrazol-1-yl)-1,3,4-thiadiazol-2-yl)-4-(2,6-dimethoxyphenyl)-3-(3-hydroxy-2-(methoxymethyl)propoxy)-2-oxo-2H-pyran-6-carboxamide] | 0.5 to 1
5 | COc1cccc(OC)c1-c1cc(C(=O)Nc2nnc(-n3nccc3N)s2)oc(=O)c1OCCN1CCO[C@H](CSC)C1 [82A*, (S)-N-(5-(5-amino-1H-pyrazol-1-yl)-1,3,4-thiadiazol-2-yl)-4-(2,6-dimethoxyphenyl)-3-(2-(2-((methylthio)methyl)morpholino)ethoxy)-2-oxo-2H-pyran-6-carboxamide] | 1 to 5
6 | COc1cccc(OC)c1-c1cc(C(=O)Nc2nnc(-n3nccc3N)s2)oc(=O)c1O[C@@H]1CC[C@@H](O)C1 (relative stereo) [64A*/B*] | 0.5 to 1
7 | COc1cccc(OC)c1-c1cc(C(=O)Nc2nnc(-n3nccc3N)s2)oc(=O)c1OCCN1CCSC(CO)C1 (stereo not drawn) [100A*/100B*] | 1 to 5
8 | COCCOc1c(-c2c(CC#N)cccc2OC)cc(C(=O)Nc2nnc(-n3nccc3N)s2)oc1=O [Compound 32, N-(5-(5-amino-1H-pyrazol-1-yl)-1,3,4-thiadiazol-2-yl)-4-(2-(cyanomethyl)-6-methoxyphenyl)-3-(2-methoxyethoxy)-2-oxo-2H-pyran-6-carboxamide] | 1 to 5
9 | COc1cccnc1-c1cc(C(=O)Nc2nnc(-n3nccc3N)s2)oc(=O)c1O[C@@H]1CCC[C@@H](OC)C1 (single isomer, unassigned) [113A*] | 1 to 5
10 | COCCOc1c(-c2c(C#N)cccc2C#N)cc(C(=O)Nc2nnc(-n3nccc3N)s2)oc1=O [Compound 12, N-(5-(5-amino-1H-pyrazol-1-yl)-1,3,4-thiadiazol-2-yl)-4-(2,6-dicyanophenyl)-3-(2-methoxyethoxy)-2-oxo-2H-pyran-6-carboxamide] | 0.5 to 1
11 | COc1cccc(OC)c1-c1cc(C(=O)Nc2nnc(-n3nccc3N)s2)oc(=O)c1O[C@@H]1CCCC[C@H]1O (single isomer, unassigned) [110A*] | 1 to 5
12 | COc1cccc(OC)c1-c1cc(C(=O)Nc2nnc(-n3nccc3N)s2)oc(=O)c1OCCN1CCSCC1CO (stereo not drawn) [96A*/96B*] | 1 to 5
13 | COCCOc1c(-c2ncccc2OC)cc(C(=O)Nc2nnc(-n3nccc3C)s2)oc1=O [Compound 4, 3-(2-methoxyethoxy)-4-(3-methoxypyridin-2-yl)-N-(5-(5-methyl-1H-pyrazol-1-yl)-1,3,4-thiadiazol-2-yl)-2-oxo-2H-pyran-6-carboxamide] | 5 to 20
14 | COc1cccc(OC)c1-c1cc(C(=O)Nc2nnc(-n3nccc3N)s2)oc(=O)c1OC[C@@H](CO)N1CCSCC1 [79A*, (R)-N-(5-(5-amino-1H-pyrazol-1-yl)-1,3,4-thiadiazol-2-yl)-4-(2,6-dimethoxyphenyl)-3-(3-hydroxy-2-thiomorpholinopropoxy)-2-oxo-2H-pyran-6-carboxamide] | 1 to 5
15 | COc1cccc(OC)c1-c1cc(C(=O)Nc2nnc(-n3nccc3N)s2)oc(=O)c1OC[C@H](CO)OC [38A*, (S)-N-(5-(5-amino-1H-pyrazol-1-yl)-1,3,4-thiadiazol-2-yl)-4-(2,6-dimethoxyphenyl)-3-(3-hydroxy-2-methoxypropoxy)-2-oxo-2H-pyran-6-carboxamide] | 0.5 to 1
16 | COc1cccc(OC)c1-c1cc(C(=O)Nc2nnc(-n3nccc3N)s2)oc(=O)c1OC[C@H](C)O [Compound 46B, (S)—N-(5-(5-amino-1H-pyrazol-1-yl)-1,3,4-thiadiazol-2-yl)-4-(2,6-dimethoxyphenyl)-3-(2-hydroxypropoxy)-2-oxo-2H-pyran-6-carboxamide] | < 0.5
17 | COc1cccc(OC)c1-c1cc(C(=O)Nc2nnc(-n3nccc3N)s2)oc(=O)c1OC1CC(O)C1 (single isomer, unassigned) [Compound 57B, N-(5-(5-amino-1H-pyrazol-1-yl)-1,3,4-thiadiazol-2-yl)-4-(2,6-dimethoxyphenyl)-3-((1,3-cis)-3-hydroxycyclobutoxy)-2-oxo-2H-pyran-6-carboxamide] | < 0.5
18 | COc1cccc(OC)c1-c1cc(C(=O)Nc2nnc(-n3nccc3N)s2)oc(=O)c1OCCO [Compound 17, N-(5-(5-amino-1H-pyrazol-1-yl)-1,3,4-thiadiazol-2-yl)-4-(2,6-dimethoxyphenyl)-3-(2-hydroxyethoxy)-2-oxo-2H-pyran-6-carboxamide] | < 0.5
19 | COCCOc1c(-c2c(OC)cccc2OCCC#N)cc(C(=O)Nc2nnc(-n3nccc3N)s2)oc1=O [Compound 67, N-(5-(5-amino-1H-pyrazol-1-yl)-1,3,4-thiadiazol-2-yl)-4-(2-(2-cyanoethoxy)-6-methoxyphenyl)-3-(2-methoxyethoxy)-2-oxo-2H-pyran-6-carboxamide] | 1 to 5
20 | COCCOc1c(-c2c(OC)cccc2OC)cc(C(=O)Nc2nnc(-c3ncsc3N)s2)oc1=O [Compound 51, N-(5-(5-aminothiazol-4-yl)-1,3,4-thiadiazol-2-yl)-4-(2,6-dimethoxyphenyl)-3-(2-methoxyethoxy)-2-oxo-2H-pyran-6-carboxamide] | 0.5 to 1
21 | COc1cccc(OC)c1-c1cc(C(=O)Nc2nnc(-n3nccc3N)s2)oc(=O)c1OC[C@H]1CCCO1 [56B*, (R)-N-(5-(5-amino-1H-pyrazol-1-yl)-1,3,4-thiadiazol-2-yl)-4-(2,6-dimethoxyphenyl)-2-oxo-3-((tetrahydrofuran-2-yl)methoxy)-2H-pyran-6-carboxamide] | 0.5 to 1
22 | COc1cccc(OC)c1-c1cc(C(=O)Nc2nnc(-n3nccc3N)s2)oc(=O)c1OC[C@H](C)OC [Compound 53, (S)-N-(5-(5-amino-1H-pyrazol-1-yl)-1,3,4-thiadiazol-2-yl)-4-(2,6-dimethoxyphenyl)-3-(2-methoxypropoxy)-2-oxo-2H-pyran-6-carboxamide] | < 0.5
23 | COc1cccnc1-c1cc(C(=O)Nc2nnc(-n3nccc3N)s2)oc(=O)c1OCCOC(F)F [Compound 61, N-(5-(5-amino-1H-pyrazol-1-yl)-1,3,4-thiadiazol-2-yl)-3-(2-(difluoromethoxy)ethoxy)-4-(3-methoxypyridin-2-yl)-2-oxo-2H-pyran-6-carboxamide] | 1 to 5
24 | COc1cccc(OC)c1-c1cc(C(=O)Nc2nnc(-n3nccc3N)s2)oc(=O)c1O[C@H](C)CO (single isomer, unassigned) [Compound 55B*] | 0.5 to 1
25 | COCCOc1c(-c2c(C#N)cccc2OC)cc(C(=O)Nc2nnc(-n3nccc3N)s2)oc1=O [Compound 8, N-(5-(5-amino-1H-pyrazol-1-yl)-1,3,4-thiadiazol-2-yl)-4-(2-cyano-6-methoxyphenyl)-3-(2-methoxyethoxy)-2-oxo-2H-pyran-6-carboxamide] | 0.5 to 1
26 | COc1cccc(C#N)c1-c1cc(C(=O)Nc2nnc(-n3nccc3Cl)s2)oc(=O)c1OCCO [Compound 26, N-(5-(5-chloro-1H-pyrazol-1-yl)-1,3,4-thiadiazol-2-yl)-4-(2-cyano-6-methoxyphenyl)-3-(2-hydroxyethoxy)-2-oxo-2H-pyran-6-carboxamide] | < 0.5
27 | COCC(CN1CCOCC1)Oc1c(-c2c(OC)cccc2OC)cc(C(=O)Nc2nnc(-n3nccc3N)s2)oc1=O (stereo not drawn) [84A*/84B*] | 5 to 20
28 | COc1cccc(OC)c1-c1cc(C(=O)Nc2nnc(-n3nccc3N)s2)oc(=O)c1O[C@@H]1CCC[C@H]1O (single isomer, unassigned) [71B*] | 0.5 to 1
29 | COc1cccc(OC)c1-c1cc(C(=O)Nc2nnc(-n3nccc3N)s2)oc(=O)c1OC[C@@H](CO)OC [38B*, (R)-N-(5-(5-amino-1H-pyrazol-1-yl)-1,3,4-thiadiazol-2-yl)-4-(2,6-dimethoxyphenyl)-3-(3-hydroxy-2-methoxypropoxy)-2-oxo-2H-pyran-6-carboxamide] | 0.5 to 1
30 | COc1cccc(OC)c1-c1cc(C(=O)Nc2nnc(-n3nccc3N)s2)oc(=O)c1O[C@H]1CC[C@@H](O)CC1 [Compound 108B, N-(5-(5-amino-1H-pyrazol-1-yl)-1,3,4-thiadiazol-2-yl)-4-(2,6-dimethoxyphenyl)-3-(((1s,4s)-4-hydroxycyclohexyl)oxy)-2-oxo-2H-pyran-6-carboxamide] | 1 to 5
